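Method: 48-hour compound exposure of cells in 96-well plates, five concentrations, linear interpolation of endpoints. GI50: concentration for 50% inhibition of growth.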 Activity calls are given as the source filed them. Cut-off read from the data, not from the text of the source: active = GI50 up to about 1.1 µM and inactive = higher.
Experiments:
Assay in all cases: NCI anticancer screen, dose series, 48 h
786-0 = tested on: 786-0
IGROV-1 = tested on: IGROV-1
A549 = tested on: A549
EKVX = tested on: EKVX
HL-60 = tested on: HL-60
SK-MEL-2 = tested on: SK-MEL-2
M14 = tested on: M14
COLO 205 = tested on: COLO 205
U-251 = tested on: U-251
NCI-H23 = tested on: NCI-H23
SR = tested on: SR
HOP-62 = tested on: HOP-62
UO-31 = tested on: UO-31
SW-620 = tested on: SW-620
SNB-19 = tested on: SNB-19
NCI-H226 = tested on: NCI-H226

COC(=O)/C(=N\NC(=O)c1ccccc1O)C(C#N)c1ccc(Cl)cc1 (stereo not drawn)
GI50 (786-0): 18 µM (inactive)
GI50 (IGROV-1): 7.4 µM (inactive)
GI50 (A549): 3.85 µM (inactive)
GI50 (EKVX): 15.6 µM (inactive)
GI50 (HL-60): 24.9 µM (inactive)
GI50 (SK-MEL-2): 21.7 µM (inactive)
GI50 (M14): 40.6 µM (inactive)
GI50 (COLO 205): > 100 µM (inactive)
GI50 (U-251): 44.7 µM (inactive)
GI50 (NCI-H23): 24.4 µM (inactive)
GI50 (SR): 37.3 µM (inactive)
GI50 (HOP-62): 14.6 µM (inactive)
GI50 (UO-31): 16.7 µM (inactive)
GI50 (SW-620): 44.5 µM (inactive)

COc1ccccc1-c1cc(=O)c2cc(C)c(C)c(C(=O)O)c2o1
GI50 (786-0): > 100 µM (inactive)
GI50 (IGROV-1): > 100 µM (inactive)
GI50 (A549): > 100 µM (inactive)
GI50 (EKVX): > 100 µM (inactive)
GI50 (HL-60): > 100 µM (inactive)
GI50 (SK-MEL-2): > 100 µM (inactive)
GI50 (M14): > 100 µM (inactive)
GI50 (COLO 205): > 100 µM (inactive)
GI50 (U-251): > 100 µM (inactive)
GI50 (NCI-H23): > 100 µM (inactive)
GI50 (HOP-62): > 100 µM (inactive)
GI50 (UO-31): > 100 µM (inactive)
GI50 (SW-620): > 100 µM (inactive)
GI50 (SNB-19): > 100 µM (inactive)

Nc1c(C(=O)Nc2ccccc2O)[n+]([O-])c2ccccc2[n+]1[O-]
GI50 (NCI-H226): > 100 µM (inactive)
GI50 (786-0): > 100 µM (inactive)
GI50 (IGROV-1): 81.5 µM (inactive)
GI50 (A549): 36.1 µM (inactive)
GI50 (EKVX): > 100 µM (inactive)
GI50 (HL-60): 25.8 µM (inactive)
GI50 (SK-MEL-2): 40.2 µM (inactive)
GI50 (M14): > 100 µM (inactive)
GI50 (COLO 205): 42.9 µM (inactive)
GI50 (U-251): 71.8 µM (inactive)
GI50 (NCI-H23): 23.9 µM (inactive)
GI50 (SR): 44.3 µM (inactive)
GI50 (HOP-62): > 100 µM (inactive)
GI50 (UO-31): 37.5 µM (inactive)
GI50 (SW-620): 21 µM (inactive)
GI50 (SNB-19): > 100 µM (inactive)

O=C1C(=O)N(c2nccs2)C(=O)C(=O)C1c1nc2ccccc2s1
GI50 (NCI-H226): > 100 µM (inactive)
GI50 (786-0): > 100 µM (inactive)
GI50 (IGROV-1): > 100 µM (inactive)
GI50 (A549): > 100 µM (inactive)
GI50 (EKVX): > 100 µM (inactive)
GI50 (SK-MEL-2): > 100 µM (inactive)
GI50 (M14): > 100 µM (inactive)
GI50 (COLO 205): > 100 µM (inactive)
GI50 (U-251): 83 µM (inactive)
GI50 (NCI-H23): > 100 µM (inactive)
GI50 (HOP-62): > 100 µM (inactive)
GI50 (UO-31): > 100 µM (inactive)
GI50 (SW-620): > 100 µM (inactive)
GI50 (SNB-19): > 100 µM (inactive)

COc1cc(/C=C2\NC(=O)C3Cc4c(OC)c(C)c(OC)c(OC)c4C2N3C)c(OC)c(C)c1OC (stereo not drawn)
GI50 (NCI-H226): > 100 µM (inactive)
GI50 (786-0): > 100 µM (inactive)
GI50 (IGROV-1): > 100 µM (inactive)
GI50 (A549): > 100 µM (inactive)
GI50 (EKVX): > 100 µM (inactive)
GI50 (HL-60): > 100 µM (inactive)
GI50 (M14): > 100 µM (inactive)
GI50 (COLO 205): > 100 µM (inactive)
GI50 (U-251): > 100 µM (inactive)
GI50 (NCI-H23): > 100 µM (inactive)
GI50 (SR): > 100 µM (inactive)
GI50 (HOP-62): > 100 µM (inactive)
GI50 (UO-31): > 100 µM (inactive)
GI50 (SW-620): > 10 µM (inactive)
GI50 (SNB-19): > 100 µM (inactive)

O=C(c1ccccc1)C(c1ccccc1)C1(O)C(=O)Nc2ccc(Br)cc21 (stereo not drawn)
GI50 (NCI-H226): 40.5 µM (inactive)
GI50 (786-0): 71.9 µM (inactive)
GI50 (IGROV-1): 56.4 µM (inactive)
GI50 (A549): > 100 µM (inactive)
GI50 (EKVX): 68.2 µM (inactive)
GI50 (HL-60): 16.6 µM (inactive)
GI50 (SK-MEL-2): 61.1 µM (inactive)
GI50 (M14): 30.5 µM (inactive)
GI50 (COLO 205): > 100 µM (inactive)
GI50 (U-251): 65 µM (inactive)
GI50 (NCI-H23): 50.4 µM (inactive)
GI50 (SR): 18.7 µM (inactive)
GI50 (HOP-62): 59.3 µM (inactive)
GI50 (UO-31): 63.8 µM (inactive)
GI50 (SW-620): 72.1 µM (inactive)
GI50 (SNB-19): > 100 µM (inactive)

COc1cccc(N2C(=O)/C(=C/c3ccc(N(CCC#N)CCC#N)cc3)N=C2c2cc([N+](=O)[O-])ccc2Cl)c1
GI50 (NCI-H226): > 100 µM (inactive)
GI50 (786-0): 30.5 µM (inactive)
GI50 (IGROV-1): 50.7 µM (inactive)
GI50 (HL-60): 49.8 µM (inactive)
GI50 (SK-MEL-2): > 100 µM (inactive)
GI50 (M14): 42.8 µM (inactive)
GI50 (COLO 205): 14.7 µM (inactive)
GI50 (U-251): 59.2 µM (inactive)
GI50 (NCI-H23): 89.1 µM (inactive)
GI50 (SR): 32.1 µM (inactive)
GI50 (HOP-62): 50.9 µM (inactive)
GI50 (UO-31): 82 µM (inactive)
GI50 (SW-620): 33.2 µM (inactive)
GI50 (SNB-19): > 100 µM (inactive)

Cc1cc(Cl)ccc1NC(=O)C(=O)C(C(=O)c1ccc2ccccc2c1)C1OC(=O)c2ccccc21 (stereo not drawn)
GI50 (NCI-H226): 2.3 µM (inactive)
GI50 (786-0): 8.91 µM (inactive)
GI50 (IGROV-1): 20.8 µM (inactive)
GI50 (A549): 21.3 µM (inactive)
GI50 (EKVX): 29.2 µM (inactive)
GI50 (SK-MEL-2): 12.8 µM (inactive)
GI50 (M14): 16 µM (inactive)
GI50 (COLO 205): 13.2 µM (inactive)
GI50 (U-251): 4.95 µM (inactive)
GI50 (NCI-H23): 6.73 µM (inactive)
GI50 (HOP-62): 10.5 µM (inactive)
GI50 (UO-31): 12.9 µM (inactive)
GI50 (SW-620): 7.87 µM (inactive)
GI50 (SNB-19): 3.87 µM (inactive)

O=c1[nH]c(=O)n(C2OC(COP(=O)(O)OP(=O)(O)OC3OC(CO)C(O)C(O)C3O)C(O)C2O)cc1F (stereo not drawn)
GI50 (NCI-H226): 0.148 µM (active)
GI50 (786-0): 0.0526 µM (active)
GI50 (IGROV-1): 0.125 µM (active)
GI50 (A549): 0.0149 µM (active)
GI50 (EKVX): 1.12 µM (inactive)
GI50 (HL-60): 0.065 µM (active)
GI50 (SK-MEL-2): 0.486 µM (active)
GI50 (M14): 0.234 µM (active)
GI50 (COLO 205): 0.0984 µM (active)
GI50 (U-251): 0.0577 µM (active)
GI50 (NCI-H23): 0.147 µM (active)
GI50 (SR): 0.0418 µM (active)
GI50 (HOP-62): 0.302 µM (active)
GI50 (UO-31): 0.04 µM (active)
GI50 (SW-620): 0.0504 µM (active)
GI50 (SNB-19): 0.156 µM (active)
